Data taken from publication PMC10518255, “A first-in-class pan-lysyl oxidase inhibitor impairs stromal remodeling and enhances gemcitabine response and survival in pancreatic cancer” (Nature Cancer, 2023).
Values joined by “and” are separate entries in the source; they are usually repeats but may differ in a detail not shown here. Equal entries are not always repeated.

How the values were obtained:
KPC PDAC tumors = assay: SHG multiphoton imaging of fibrillar collagen in end-point KPC tumors; type: in vivo, mouse; conditions: for SHG peak signal intensity: 5 animals per group, 5 FOV per animal, single FOV values
Description: Fig. 4 PXS-5505 administered in a KPC in vivo survival study. a, Schematic of the KPC in vivo survival study. Presence of a primary tumor in KPC mice was confirmed by two independent researchers (positive diagnosis) before commencement of daily treatment (Tx) on one of four treatment arms as follows: vehicle, 0.9% saline; Gem, twice-weekly gemcitabine (100 mg kg^−1 i.p.); PXS-5505, daily PXS-5505 at 20 mg kg^−1 i.p.; and PXS-5505 + Gem, daily PXS-5505 at 20 mg kg^−1 i.p. + twice-weekly gemcitabine (100 mg kg^−1 i.p.). b, Table of median survival (since diagnosis/commencement of treatment) across the four treatment groups (n = 30 biologically independent animals (vehicle), n = 31 biologically independent animals (Gem), n = 36 biologically independent animals (PXS-5505), n = 46 biologically independent animals (PXS-5505 + Gem)). c, Kaplan–Meier curves for overall survival across treatment arms (n = 30 biologically independent animals (vehicle), n = 31 biologically independent animals (Gem), n = 36 biologically independent animals (PXS-5505), n = 46 biologically independent animals (PXS-5505 + Gem)). P values determined by log-rank (Mantel–Cox) test. d, Representative maximum intensity projections of SHG multiphoton imaging for tumors from each treatment group (n = 1 FOV taken from one biologically independent animal per group) at end point (scale bars, 100 μm) and quantification of SHG peak signal intensity (n = 5 biologically independent animals per group and five FOV per animal). Data are mean ± s.d. […] Quantification of metastases (n = 18 biologically independent animals (vehicle), n = 18 biologically independent animals (Gem), n = 17 biologically independent animals (PXS-5505), n = 15 biologically independent animals (PXS-5505 + Gem)). Data are mean ± s.d.
SHG imaging of fibrillar collagens was employed to analyze collagen density and organization as performed previously[28],[34],[58]. […] Intensity was recorded with a RLD HyD detector (440/20 nm). […] SHG signal intensities were measured using MATLAB (MathWorks) as described previously[28],[34],[58].

TKCC10 human PDX tumors = assay: TKCC10 human model survival study (Extended Data Fig. 5k); type: in vivo, mouse
Description: Subcutaneous PDX studies were performed by implanting early passage PDX pieces (~4 mm^3) or TKCC10 CCs (1.5 × 10^6 cells per mouse in 100 μl PBS/Matrigel 1:1) into female (PDX) or male (TKCC10) 8-week-old immunocompromised nude Balb/c-Fox1nuAusb mice subcutaneously on the left flank. For the duration of the study, mice were kept in conventional caging with environmental enrichment, access to standard chow, water ad libitum and 12-h light–dark cycle at ambient temperature and humidity. […] Tumor size was monitored every second day by calipers. Tumor volume was calculated using the formula (length × width^2)/2. […]
Extended Data Fig. 5 PXS-5505 in combination with gemcitabine in vivo. a. […] Signal is defined as the enzyme activity in the aorta, while noise is measured in the presence of a high concentration (300 µM) BAPN to abolish any lysyl oxidase family activity. […] FITC-dextran (molecular weight: 10 kDa) signal quantification from KPC tumor end point from each treatment group (vehicle n = 3 biologically independent animals, PXS-5505 n = 5 biologically independent animals, Gem n = 5 biologically independent animals, PXS-5505 + Gem n = 5 biologically independent animals). […] P-values determined by Welchs t-test. […] Quantification of red birefringent (mature) collagen fibers from human PDXs at end point after 3 cycles of treatment, treated as indicated. […]

SMILES	fibrillar collagen / stromal content by SHG (KPC PDAC tumors)	SHG peak signal intensity (KPC PDAC tumors)	median survival (time under treatment after tumor reached 50 mm^3) (TKCC10 human PDX tumors) [days]
Nc1ccn([C@@H]2O[C@H](CO)[C@@H](O)C2(F)F)c(=O)n1 [Gem, gemcitabine]	significantly increased stromal content	116.837 and 121.251 and 74.7808 and 58.0704 and 58.6614 and 88.5172 and 66.9647 and 76.4458 and 85.1379 and 61.658 and 86.6036 and 56.3648 and 49.2982 and 91.4138 and 56.7061 and 67.2683 and 73.645 and 75.3134 and 83.1972 and 82.1163 and 64.6996 and 72.2796 and 40.261 and 45.2578 and 54.2825	29
Cl.Cl.NC/C=C(\F)CS(=O)(=O)c1cccc2cccnc12.O [PXS-5505, (Z)-3-fluoro-4-(quinolin-8-ylsulfonyl)but-2-en-1-amine dihydrochloride monohydrate]	–	45.7826 and 42.6725 and 46.4759 and 51.7331 and 29.3681 and 51.0162 and 24.7531 and 11.1698 and 19.0235 and 45.4063 and 19.8592 and 24.5743 and 17.8792 and 16.4101 and 14.0868 and 27.3224 and 22.509 and 34.8879 and 24.4703 and 26.4774 and 34.2776 and 17.1388 and 29.5006 and 45.3832 and 44.8772	16
